Legend:
Assay type in all cases: in vivo
[1] = tested on: Amaranthus retoflexus (AMARE); experiment: Pre-emergence herbicidal glasshouse test; conditions: 250 g/ha, sprayed after one day cultivation, evaluated after 13 days
Outline: (§1)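 Seeds sown in pots are grown under controlled glasshouse conditions (24/16° C day/night, 14 hours light, 65% humidity). After 1 day (pre) or 8 days (post), plants are sprayed at 250 g/ha unless otherwise stated. Damage is rated 13 days later on a five-point scale.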

[2] = tested on: Setaria faberi (SETFA); experiment: Pre-emergence herbicidal glasshouse test; conditions: 250 g/ha, sprayed after one day cultivation, evaluated after 13 days
Outline: as §1

[3] = tested on: Echinochloa crus-gali (ECHCG); experiment: Pre-emergence herbicidal glasshouse test; conditions: 250 g/ha, sprayed after one day cultivation, evaluated after 13 days
Outline: as §1

[4] = tested on: Ipomoea hederacea (IPOHE); experiment: Pre-emergence herbicidal glasshouse test; conditions: 250 g/ha, sprayed after one day cultivation, evaluated after 13 days
Outline: as §1

[5] = tested on: Amaranthus pa/meri (AMAPA); experiment: Pre-emergence herbicidal glasshouse test; conditions: 250 g/ha, sprayed after one day cultivation, evaluated after 13 days
Outline: as §1

[6] = tested on: Amaranthus retoflexus (AMARE); experiment: Post-emergence herbicidal glasshouse test; conditions: 250 g/ha, sprayed after 8 days cultivation, evaluated after 13 days
Outline: as §1

[7] = tested on: Setaria faberi (SETFA); experiment: Post-emergence herbicidal glasshouse test; conditions: 250 g/ha, sprayed after 8 days cultivation, evaluated after 13 days
Outline: as §1

[8] = tested on: Echinochloa crus-gali (ECHCG); experiment: Post-emergence herbicidal glasshouse test; conditions: 250 g/ha, sprayed after 8 days cultivation, evaluated after 13 days
Outline: as §1

[9] = tested on: Ipomoea hederacea (IPOHE); experiment: Post-emergence herbicidal glasshouse test; conditions: 250 g/ha, sprayed after 8 days cultivation, evaluated after 13 days
Outline: as §1

[10] = tested on: Amaranthus pa/meri (AMAPA); experiment: Post-emergence herbicidal glasshouse test; conditions: 250 g/ha, sprayed after 8 days cultivation, evaluated after 13 days
Outline: as §1

Compound | percentage damage caused to the plant, AMARE [1] | percentage damage caused to the plant, SETFA [2] | percentage damage caused to the plant, ECHCG [3] | percentage damage caused to the plant, IPOHE [4] | percentage damage caused to the plant, AMAPA [5] | percentage damage caused to the plant, AMARE [6] | percentage damage caused to the plant, SETFA [7] | percentage damage caused to the plant, ECHCG [8] | percentage damage caused to the plant, IPOHE [9] | percentage damage caused to the plant, AMAPA [10]
FC(F)(F)CCCc1nc(C(F)(F)F)cn1Cc1ncc(Cl)cn1 [Compound 1.025] | 5 (5=81-100%) | 5 (5=81-100%) | 5 (5=81-100%) | 5 (5=81-100%) | 5 (5=81-100%) | 5 (5=81-100%) | 5 (5=81-100%) | 5 (5=81-100%) | 4 (4=61-80%) | 5 (5=81-100%)
FC(F)c1ccn(CCc2nc(C(F)(F)F)cn2Cc2ncc(Cl)cn2)n1 [Compound 1.032] | 5 (5=81-100%) | 5 (5=81-100%) | 5 (5=81-100%) | 5 (5=81-100%) | 5 (5=81-100%) | 5 (5=81-100%) | 3 (3=41-60%) | 3 (3=41-60%) | 4 (4=61-80%) | 4 (4=61-80%)
CS(=O)(=O)CCc1nc(C(F)(F)F)cn1Cc1ncc(Cl)cn1 [Compound 1.048] | 5 (5=81-100%) | 1 (1=0-20%) | 1 (1=0-20%) | 5 (5=81-100%) | 4 (4=61-80%) | 4 (4=61-80%) | 1 (1=0-20%) | 1 (1=0-20%) | 4 (4=61-80%) | 4 (4=61-80%)
CC(O)CCc1nc(C(F)(F)F)cn1Cc1ncc(Cl)cn1 (centres unmarked) [Compound 1.082] | 4 (4=61-80%) | 2 (2=21-40%) | 1 (1=0-20%) | 1 (1=0-20%) | 2 (2=21-40%) | 2 (2=21-40%) | 1 (1=0-20%) | 1 (1=0-20%) | 1 (1=0-20%) | 3 (3=41-60%)
N#Cc1cn(Cc2ncc(Cl)cn2)c(CC2CCOC2)n1 (centres unmarked) [Compound 1.073, 1-[(5-chloropyrimidin-2-yl)methyl]-2-(tetrahydrofuran-3-ylmethyl)imidazole-4-carbonitrile] | 2 (2=21-40%) | 1 (1=0-20%) | 1 (1=0-20%) | 2 (2=21-40%) | 2 (2=21-40%) | 2 (2=21-40%) | 1 (1=0-20%) | 1 (1=0-20%) | 3 (3=41-60%) | 2 (2=21-40%)
CCCCc1nc(C(F)F)cn1Cc1ncc(Cl)cc1F [Compound 1.054, 2-[[2-butyl-4-(difluoromethyl)imidazol-1-yl]methyl]-5-chloro-3-fluoro-pyridine] | 3 (3=41-60%) | 1 (1=0-20%) | 1 (1=0-20%) | 1 (1=0-20%) | 4 (4=61-80%) | 3 (3=41-60%) | 1 (1=0-20%) | 1 (1=0-20%) | 2 (2=21-40%) | 2 (2=21-40%)
CCOCc1nc(C(F)(F)F)cn1Cc1ncc(Cl)cn1 [Compound 1.039] | 4 (4=61-80%) | 2 (2=21-40%) | 1 (1=0-20%) | 2 (2=21-40%) | 3 (3=41-60%) | 2 (2=21-40%) | 1 (1=0-20%) | 1 (1=0-20%) | 2 (2=21-40%) | 2 (2=21-40%)
CC(F)(F)CCc1nc(C(F)(F)F)cn1Cc1ncc(Cl)cn1 [Compound 1.085] | 5 (5=81-100%) | 5 (5=81-100%) | 5 (5=81-100%) | 5 (5=81-100%) | 5 (5=81-100%) | 5 (5=81-100%) | 5 (5=81-100%) | 4 (4=61-80%) | 4 (4=61-80%) | 5 (5=81-100%)
C=CCCc1nc(C(F)(F)F)cn1Cc1ncc(Cl)cn1 [Compound 1.020, 2-[[2-but-3-enyl-4-(trifluoromethyl)imidazol-1-yl]methyl]-5-chloro-pyrimidine] | 5 (5=81-100%) | 4 (4=61-80%) | 5 (5=81-100%) | 4 (4=61-80%) | 5 (5=81-100%) | 3 (3=41-60%) | 1 (1=0-20%) | 2 (2=21-40%) | 2 (2=21-40%) | 2 (2=21-40%)
OCCCc1nc(C(F)(F)F)cn1Cc1ncc(Cl)cn1 [Compound 1.008, 3-[1-[(5-chloropyrimidin-2-yl)methyl]-4-(trifluoromethyl)imidazol-2-yl]propan-1-ol] | 1 (1=0-20%) | 1 (1=0-20%) | 2 (2=21-40%) | 1 (1=0-20%) | 1 (1=0-20%) | 1 (1=0-20%) | 1 (1=0-20%) | 1 (1=0-20%) | 1 (1=0-20%) | 1 (1=0-20%)
FC(F)c1nc(C(F)(F)F)cn1Cc1ncc(Cl)cn1 [Compound 1.070, 5-chloro-2-[[2-(difluoromethyl)-4-(trifluoromethyl)imidazol-1-yl]methyl]pyrimidine] | 5 (5=81-100%) | 1 (1=0-20%) | 1 (1=0-20%) | 3 (3=41-60%) | 5 (5=81-100%) | 1 (1=0-20%) | 1 (1=0-20%) | 1 (1=0-20%) | 2 (2=21-40%) | 1 (1=0-20%)
